Usually Kd stands for the equilibrium constant for the complex coming apart. The IC50 is the midpoint of a concentration-inhibition curve. The low end stands for higher potency, the high end for lower potency.

The structures appear in SMILES notation. Where “and” joins values, the source holds several entries; their conditions need not be identical. Equal entries are not always repeated.

For assay [1], the target named is T1, PR10-10 (Papaver somniferum, UniProt A0A9Y2YA81).
T1 sequence (A0A9Y2YA81 1-158): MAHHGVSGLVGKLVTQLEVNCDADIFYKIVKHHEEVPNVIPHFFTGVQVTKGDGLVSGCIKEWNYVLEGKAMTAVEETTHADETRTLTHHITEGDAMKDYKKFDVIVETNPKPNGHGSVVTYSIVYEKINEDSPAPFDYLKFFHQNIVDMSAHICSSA
In words: Isothermal titration calorimetry. In kind it is binding. Conditions: ITC, CBS pH 5.5, printed in brackets beside *, read-out: Kd (estimate, low enthalpy system). The protocol:
(§1) ITC experiments were conducted using a Microcal VP instrument (Malvern Pananalytical, Malvern, UK). […] Eluates were twice dialysed to equilibrium (i.e., 10–12 h at 4 °C) against a 1000-fold (2–4 L) volume of PBS, pH 7.4 (25 mM sodium phosphate, 50 mM NaCl) or CBS, pH 5.5, resulting in a theoretical million-fold dilution of undesired small molecules (e.g., <0.2 µM imidazole). Dialysis was carried out in boiled Spectra/Por 1 6–8 kDa MWCO 0.32 ml/cm (Spectrum Labs, USA) tubing thoroughly washed with either buffer before use. The second 1000-fold volume of dialysis buffer was filtered and degassed using a reusable bottle-top filtration apparatus (Nalgene, USA) with disposable […] cellulose filters (VWR, Canada) prior to storage at 4 °C. Ligands were dissolved in the filtered dialysis buffer at 21 °C for approximately one hour, and any insoluble material was removed by repeated centrifugation at 21,000 × g for 10 min. […] Prior to ITC, which was initiated immediately following dialysis, the protein solutions were centrifuged at 17,000 × g and 4 °C for 30 min. Any precipitate was separated from the remaining soluble protein fraction which was quantified by absorption at A280nm and diluted with filtered dialysis buffer immediately before use.
(§2) Thermograms were recorded at 25 °C, with a reference power of 10 (dpu/sec) and monitoring of 30 injections of 9 µl BIA ligand solutions into a sample cell containing 1.4 ml of an MLP/PR10 protein solution, with 300 seconds between injections. […] To ensure that we report only the heat of reaction for each interaction, independent titrations of ligand into buffer, and buffer into protein solutions, were used to calculate and then subtract heats of dilution. After subtraction, binding isotherms were analyzed in MicroCal Origin 7 (MicroCal, USA) by fitting a single-site binding model using non-linear least squares regression analysis repeated until convergence. […] Each ITC experiment was repeated 2 to 4 times.

Assay [2] concerns the target T2, NISO (Papaver somniferum, UniProt P0DYP9). In words: ANS displacement assay.
Method: (§5) 8-anilino-1-naphthalenesulfonic acid (ANS) fluorescence binding curves and the binding-induced reduction in ANS fluorescence resulting from competition with tested ligands across a range of concentration facilitated the measurement of IC50 and an estimate of Kd values using the binding models and procedures described previously[70]. […] ANS was dissolved in dimethylsufoxide at a concentration of 20 mM, stored at −20 °C until dilution and protected from exposure to light. […] 40 µl of the ANS solution and 40 µl of each MLP/PR10 protein solution were combined to 80 µl final reaction volumes, which were incubated at 21 °C for 10 min to allow equilibration of binding. Triplicate 18-µl aliquots were withdrawn from each 80 µl reaction, transferred to optically clear PCR tubes (Diamed, Canada) and ANS fluorescence was measured following an additional 3-min incubation at 30 °C using a Qiagen Rotor-gene Q 6-plex with excitation and emission filters of 365 ± 20 nm and 460 ± 20 nm, respectively. An identical reaction series whereby protein was omitted from the mixtures was measured under identical conditions and trace fluorescence was subtracted from each MLP/PR10 protein-containing sample. Each data set was scaled so that the maximum observed fluorescence corresponded to 100% and individual data points were plotted, and a rectangular hyperbolic ligand binding function was fit, using least-squares analysis (Prism 5 software, Graphpad, USA). Experiments were repeated at least twice with independently prepared protein.
(§6) Displacement of ANS is associated with reduced fluorescence. […] Briefly, 40 µl of 20 µM ANS and individual MLP/ PR10 protein solutions were combined in CBS buffer, pH 5.5, incubated at 21 °C for 5 min, mixed with 40 µl of separate 0 to 6 mM BIA solutions in CBS buffer, pH 5.5, and the 80 µl reactions were subsequently incubated for 10 min at 21 °C. Fluorescence was measured as described above, including subtraction of any fluorescence in a blank series whereby protein was omitted. […] Each experiment was repeated at least twice with independently prepared MLP/PR10 proteins and BIA ligand.
Assay [3] concerns the target T2, NISO. In words: Isothermal titration calorimetry. In kind it is binding. Set-up: made in house; host or cells: E. coli ArcticExpress (DE3). To be noted: ITC, PBS pH 7.4, 25 °C. As for the experimental part:
as §1, §2
(ITC needs no label: the signal is the heat of the interaction.)

Assay [4] addresses THS2 (Papaver somniferum, UniProt A0A2U9GGW3). In words: Isothermal titration calorimetry. In kind it is binding. Set-up: made in house; host or cells: E. coli ArcticExpress (DE3). To be noted: ITC, PBS pH 7.4, 25 °C. The protocol: as §1, §2
Assay [5] has as its target PR10-12. The assay is described as follows: ANS displacement assay. The assay is classed as binding, Papaver somniferum. An excerpt:
(§3) Eluates were store separately on ice.
(§4) Displacement of ANS is associated with reduced fluorescence.

The target in assay [6] is MLP2. In words: ANS displacement assay. In kind it is binding, Papaver somniferum.
From the text: as §3, §4

Assay [7] has as its target PR10-4. The assay is described as follows: ANS displacement assay. In kind it is binding, Papaver somniferum.
From the text: as §3, §4

In assay [8] the target is T3, MLP15 (Papaver somniferum, UniProt P19825).
T3 sequence (P19825 1-159): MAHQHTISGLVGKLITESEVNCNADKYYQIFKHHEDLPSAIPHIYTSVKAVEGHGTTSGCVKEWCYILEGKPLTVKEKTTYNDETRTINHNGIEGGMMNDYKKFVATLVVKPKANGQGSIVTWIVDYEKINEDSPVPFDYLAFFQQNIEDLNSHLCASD
The assay is described as follows: ANS displacement assay.
Method: as §5, §6

For assay [9], the target named is PR10-12. In words: Isothermal titration calorimetry. The assay is classed as binding, Papaver somniferum. Conditions: ITC, PBS pH 7.4, 25 °C, single-site model. The protocol: ITC experiments were conducted using a Microcal VP instrument (Malvern Pananalytical, Malvern, UK). Recombinant MLP/PR10 protein preparation involving production in Escherichia coli followed by cobalt-affinity chromatography was optimized to yield relatively high purity in a single step as determined by SDS-PAGE and colloidal Coomassie blue silver staining. The less than 48 h decrease in atmospheric oxygen exposure generated high-quality proteins with reduced precipitate. […] Eluates were twice dialysed to equilibrium (i.e., 10–12 h at 4 °C) against a 1000-fold (2–4 L) volume of PBS, pH 7.4 (25 mM sodium phosphate, 50 mM NaCl) or CBS, pH 5.5, resulting in a theoretical million-fold dilution of undesired small molecules (e.g., <0.2 µM imidazole). Dialysis was carried out in boiled Spectra/Por 1 6–8 kDa MWCO 0.32 ml/cm (Spectrum Labs, USA) tubing thoroughly washed with either buffer before use. The second 1000-fold volume of dialysis buffer was filtered and degassed using a reusable bottle-top filtration apparatus (Nalgene, USA) with disposable […] cellulose filters (VWR, Canada) prior to storage at 4 °C. Ligands were dissolved in the filtered dialysis buffer at 21 °C for approximately one hour, and any insoluble material was removed by repeated centrifugation at 21,000 × g for 10 min. No change in pH occurred following substrate addition. Prior to ITC, which was initiated immediately following dialysis, the protein solutions were centrifuged at 17,000 × g and 4 °C for 30 min. Any precipitate was separated from the remaining soluble protein fraction which was quantified by absorption at A280nm and diluted with filtered dialysis buffer immediately before use.
as §2, with “injections. Protein concentrations varied from 10 to 150 µM to achieve an optimal C value and curve shape valid for parameter calculation.” for “injections.”

The mark [10] stands for this setting: 10 µM protein and 10 µM ANS, CBS pH 5.5.
The mark [11] stands for this setting: from average IC50 and PR10-ANS Kd, competitive inhibition assumed, read-out: Estimated Kd.

Sequence of THS2 (A0A2U9GGW3 whole entry): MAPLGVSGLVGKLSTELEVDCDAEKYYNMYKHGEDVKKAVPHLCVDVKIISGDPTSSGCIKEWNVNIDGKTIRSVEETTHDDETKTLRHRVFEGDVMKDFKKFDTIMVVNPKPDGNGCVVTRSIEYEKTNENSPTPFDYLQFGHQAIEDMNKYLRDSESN
T2 sequence (P0DYP9 entry or part of it): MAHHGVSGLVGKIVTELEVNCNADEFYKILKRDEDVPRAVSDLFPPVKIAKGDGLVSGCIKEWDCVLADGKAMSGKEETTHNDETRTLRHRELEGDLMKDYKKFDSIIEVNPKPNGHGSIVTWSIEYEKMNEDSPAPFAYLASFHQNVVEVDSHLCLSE

For the molecule `COc1cc2c(cc1OC)[C@@H]1Cc3ccc(OC)c(OC)c3CN1CC2` [Tetrahydropalmatine], the Kd in [1] is 180 ± 133 µM.
`COC1=CC=C2[C@H]3Cc4ccc(OC)c5c4[C@@]2(CCN3C)[C@H]1O5` [Thebaine, thebaine]: the Kd was 171 µM in [2]; 18 µM and 18.2 µM in assay [3] (Kd, single-site model); 31 µM and 31.2 µM in assay [4] (Kd, single-site model); 432 µM in assay [5] (setting [11]); 292 µM in assay [6] (setting [11]); 2350 µM in assay [7] (setting [11]). The Kd in assay [8] amounted to 612 µM; in assay [9], 21.6 ± 0.71 µM; in assay [9] (listed as thebaine) it was 22 µM. The IC50 was 199 µM and 200 µM in assay [2] (IC50, NISO, 10 µM protein and 10 µM ANS, CBS pH 5.5); 445 µM in assay [5] (setting [10]); 394 µM in assay [6] (setting [10]); 2570 µM in [7] (setting [10]); 690 µM in [8] (IC50, MLP15, 10 µM protein and 10 µM ANS, CBS pH 5.5). In addition, the Log10IC50 is 2.30 ± 0.14 in [2] (NISO, 10 µM protein and 10 µM ANS, CBS pH 5.5); 2.65 ± 0.21 in assay [5] (setting [10]); 2.60 ± 0.20 in assay [6] (setting [10]); 3.41 ± 1.42 in assay [7] (setting [10]); 2.84 ± 0.23 in [8] (MLP15, 10 µM protein and 10 µM ANS, CBS pH 5.5). Further, the “Hill Slope” value is listed as 0.92 ± 0.16 in assay [2] (NISO, ANS displacement dose-response fit) and -1.05 ± 0.19 in assay [8] (MLP15, ANS displacement dose-response fit). The figures for the ΔH in [3] and in assay [4] were -2.396 ± 0.1109 kcal/mol and 2.45 ± 0.09784 kcal/mol, respectively. The figures for the ΔS in assay [3] and in [4] were 13.6 cal/mol/˚K and 28.8 cal/mol/˚K, respectively. Besides, the N came out at 0.786 ± 0.0251 in assay [3] (single-site model) and 0.523 ± 0.0156 in assay [4] (single-site model).

The values above are taken from article PMC9646721, “Alkaloid binding to opium poppy major latex proteins triggers structural modification and functional aggregation” (Nature Communications, 2022).
